# Source: US12180146B2, “Antihypertensive polyol compound and derivative thereof” (TAO PHARMACEUTICAL (SUZHOU) CO., LTD, priority 2020, dated 2024)
# Structures can show the parent of a compound that is named as a salt.
# System: spontaneously hypertensive rats (SHR)
# Assay: Antihypertensive activity test: blood pressure and heart rate of spontaneously hypertensive rats (SHR)
# Assay type: in vivo, rat
# Details: 200 mg/kg; for SHR heart rate, time after administration 0 h / SHR heart rate, time after administration 1 h / SHR heart rate, time after administration 2 h / SHR heart rate, time after administration 3 h / SHR heart rate, time after administration 4 h / SHR heart rate, time after administration 5 h / SHR heart rate, time after administration 6 h: N = 8; for SHR blood pressure (SBP), time after administration 1 h / SHR blood pressure (SBP), time after administration 2 h / SHR blood pressure (SBP), time after administration 3 h / SHR blood pressure (SBP), time after administration 4 h / SHR blood pressure (SBP), time after administration 5 h / SHR blood pressure (SBP), time after administration 6 h / Blood pressure (SBP, mmHg) After administration / Heart rate (beat/min) After administration / Blood pressure (SBP, mmHg) Baseline / Heart rate (beat/min) Baseline: n = 8; for Blood pressure (SBP, mmHg) After administration / Heart rate (beat/min) After administration: after administration (6 h M ± SD); for Heart rate Difference (beat/min): after administration minus baseline (6 h); for Blood pressure Difference mmHg: baseline minus after administration (6 h); for Blood pressure (SBP, mmHg) Baseline / Heart rate (beat/min) Baseline: before administration, M ± SD
# Protocol: Tested Drugs: Compounds of the Invention. The dosage of all compound was uniformly set to 200 mg/kg.
# In the test, changes in the blood pressure before and after the administration were detected, and compared with the basic value, a reduction of SBP ≥20 mmHg after administration was judged as effective antihypertensive effects; and at the same time, changes in the heart rate before and after the administration were detected.
# Heart rate was expressed as mean±standard deviation (x±s). The changes of heart rate before and after the administration were compared by using Two-sample equal variance paired t test, and P<0.05 was regarded as the standard of statistically significant difference.
smiles,measurement,setting,value
"COCCc1ccc(OCC(O)CNC(C)C)cc1 (stereo not drawn) [Metoprolol Hydrochloride, reference compound]",effect on heart rate while lowering blood pressure,,significantly slow down the heart rate
same,time after administration of lowest value of blood pressure,,3 h
same,"SHR heart rate, time after administration 0 h",,328 ± 24.5 beat/min
same,"Heart rate Difference before and after administration, 1 h",,−44 beat/min
same,"SBP Difference before and after administration, 1 h",,20 mmHg
same,"SHR heart rate, time after administration 1 h",,283 ± 24.4 beat/min
same,"SHR blood pressure (SBP), time after administration 1 h",,166 ± 6.39 mmHg
same,"Heart rate Difference before and after administration, 2 h",,−45 beat/min
same,"SBP Difference before and after administration, 2 h",,22 mmHg
same,"SHR heart rate, time after administration 2 h",,283 ± 23.1 beat/min
same,"SHR blood pressure (SBP), time after administration 2 h",,164 ± 4.50 mmHg
same,"Heart rate Difference before and after administration, 3 h",,−49 beat/min
same,"SBP Difference before and after administration, 3 h",,25 mmHg
same,"SHR heart rate, time after administration 3 h",,279 ± 22.3 beat/min
same,"SHR blood pressure (SBP), time after administration 3 h",,161 ± 9.15 mmHg
same,"Heart rate Difference before and after administration, 4 h",,−48 beat/min
same,"SBP Difference before and after administration, 4 h",,24 mmHg
same,"SHR heart rate, time after administration 4 h",,280 ± 23.0 beat/min
same,"SHR blood pressure (SBP), time after administration 4 h",,163 ± 13.7 mmHg
same,"Heart rate Difference before and after administration, 5 h",,−43 beat/min
same,"SBP Difference before and after administration, 5 h",,23 mmHg
same,"SHR heart rate, time after administration 5 h",,285 ± 24.0 beat/min
same,"SHR blood pressure (SBP), time after administration 5 h",,164 ± 15.9 mmHg
same,"Heart rate Difference before and after administration, 6 h",,−40 beat/min
same,"SBP Difference before and after administration, 6 h",,18 mmHg
same,"SHR heart rate, time after administration 6 h",,288 ± 28.5 beat/min
same,"SHR blood pressure (SBP), time after administration 6 h",,168 ± 8.78 mmHg
same,average heart rate slowed by,6 hours after administration,46 beats/min
same,"Blood pressure (SBP, mmHg) After administration",,164 ± 7.85 mmHg
same,Heart rate (beat/min) After administration,,282 ± 21.3 beat/min
same,Heart rate Difference (beat/min),,−46 beat/min
same,blood pressure reduction after administration,at most recorded time points,more than 20 mmHg
same,Blood pressure Difference mmHg,,23 mmHg
same,"Blood pressure (SBP, mmHg) Baseline",,186 ± 7.87 mmHg
same,Heart rate (beat/min) Baseline,,328 ± 24.5 beat/min
CCC(O)c1cccc(CO)c1 (stereo not drawn) [Compound 13],"SHR heart rate, time after administration 0 h",,319 ± 21.0 beat/min
same,"Heart rate Difference before and after administration, 1 h",,6 beat/min
same,"SBP Difference before and after administration, 1 h",,3 mmHg
same,"SHR heart rate, time after administration 1 h",,325 ± 24.2 beat/min
same,"SHR blood pressure (SBP), time after administration 1 h",,186 ± 12.4 mmHg
same,"Heart rate Difference before and after administration, 2 h",,14 beat/min
same,"SBP Difference before and after administration, 2 h",,12 mmHg
same,"SHR heart rate, time after administration 2 h",,332 ± 38.9 beat/min
same,"SHR blood pressure (SBP), time after administration 2 h",,178 ± 12.0 mmHg
same,"Heart rate Difference before and after administration, 3 h",,17 beat/min
same,"SBP Difference before and after administration, 3 h",,19 mmHg
same,"SHR heart rate, time after administration 3 h",,335 ± 43.8 beat/min
same,"SHR blood pressure (SBP), time after administration 3 h",,171 ± 13.1 mmHg
same,"Heart rate Difference before and after administration, 4 h",,15 beat/min
same,"SBP Difference before and after administration, 4 h",,14 mmHg
same,"SHR heart rate, time after administration 4 h",,334 ± 45.8 beat/min
same,"SHR blood pressure (SBP), time after administration 4 h",,176 ± 11.4 mmHg
same,"Heart rate Difference before and after administration, 5 h",,10 beat/min
same,"SBP Difference before and after administration, 5 h",,10 mmHg
same,"SHR heart rate, time after administration 5 h",,329 ± 39.5 beat/min
same,"SHR blood pressure (SBP), time after administration 5 h",,180 ± 11.9 mmHg
same,"Heart rate Difference before and after administration, 6 h",,2 beat/min
same,"SBP Difference before and after administration, 6 h",,14 mmHg
same,"SHR heart rate, time after administration 6 h",,320 ± 43.1 beat/min
same,"SHR blood pressure (SBP), time after administration 6 h",,176 ± 10.1 mmHg
same,"Blood pressure (SBP, mmHg) After administration",,178 ± 11.2 mmHg
same,Heart rate (beat/min) After administration,,329 ± 27.7 beat/min
same,Heart rate Difference (beat/min),,10 beat/min
same,Blood pressure Difference mmHg,,12 mmHg
same,"Blood pressure (SBP, mmHg) Baseline",,190 ± 13.2 mmHg
same,Heart rate (beat/min) Baseline,,319 ± 21.0 beat/min
CCc1cccc(C(CO)OC(=O)CN)c1 (stereo not drawn) [Compound 23],"SBP Difference before and after administration, 1 h",,10 mmHg
same,"SHR blood pressure (SBP), time after administration 1 h",,186 ± 6.39 mmHg
same,"SBP Difference before and after administration, 2 h",,9 mmHg
same,"SHR blood pressure (SBP), time after administration 2 h",,187 ± 4.66 mmHg
same,"SBP Difference before and after administration, 3 h",,15 mmHg
same,"SHR blood pressure (SBP), time after administration 3 h",,181 ± 9.15 mmHg
same,"SBP Difference before and after administration, 4 h",,13 mmHg
same,"SHR blood pressure (SBP), time after administration 4 h",,183 ± 13.7 mmHg
same,"SBP Difference before and after administration, 5 h",,18 mmHg
same,"SHR blood pressure (SBP), time after administration 5 h",,178 ± 15.9 mmHg
same,"SBP Difference before and after administration, 6 h",,18 mmHg
same,"SHR blood pressure (SBP), time after administration 6 h",,178 ± 8.78 mmHg
OCC(O)c1ccccc1 (stereo not drawn) [Compound 2],"SBP Difference before and after administration, 1 h",,16 mmHg
same,"SHR blood pressure (SBP), time after administration 1 h",,169 ± 6.39 mmHg
same,"SBP Difference before and after administration, 2 h",,18 mmHg
same,"SHR blood pressure (SBP), time after administration 2 h",,167 ± 4.50 mmHg
same,"SBP Difference before and after administration, 3 h",,19 mmHg
same,"SHR blood pressure (SBP), time after administration 3 h",,166 ± 9.15 mmHg
same,"SBP Difference before and after administration, 4 h",,19 mmHg
same,"SHR blood pressure (SBP), time after administration 4 h",,166 ± 13.7 mmHg
same,"SBP Difference before and after administration, 5 h",,20 mmHg
same,"SHR blood pressure (SBP), time after administration 5 h",,165 ± 15.3 mmHg
same,"SBP Difference before and after administration, 6 h",,15 mmHg
same,"SHR blood pressure (SBP), time after administration 6 h",,170 ± 8.77 mmHg
CC(=O)OC(C)C(OC(C)=O)c1ccccc1 (stereo not drawn) [Compound 15],"SBP Difference before and after administration, 1 h",,14 mmHg
same,"SHR blood pressure (SBP), time after administration 1 h",,176 ± 9.55 mmHg
same,"SBP Difference before and after administration, 2 h",,18 mmHg
same,"SHR blood pressure (SBP), time after administration 2 h",,172 ± 7.36 mmHg
same,"SBP Difference before and after administration, 3 h",,21 mmHg
same,"SHR blood pressure (SBP), time after administration 3 h",,169 ± 4.07 mmHg
same,"SBP Difference before and after administration, 4 h",,17 mmHg
same,"SHR blood pressure (SBP), time after administration 4 h",,173 ± 7.15 mmHg
same,"SBP Difference before and after administration, 5 h",,15 mmHg
same,"SHR blood pressure (SBP), time after administration 5 h",,175 ± 5.61 mmHg
same,"SBP Difference before and after administration, 6 h",,10 mmHg
same,"SHR blood pressure (SBP), time after administration 6 h",,180 ± 6.66 mmHg
CC(C)(O)[C@H](O)[C@H](O)c1cccc2[nH]ccc12 [Compound 21],"SBP Difference before and after administration, 1 h",,11 mmHg
same,"SHR blood pressure (SBP), time after administration 1 h",,184 ± 10.6 mmHg
same,"SBP Difference before and after administration, 2 h",,13 mmHg
same,"SHR blood pressure (SBP), time after administration 2 h",,182 ± 10.4 mmHg
same,"SBP Difference before and after administration, 3 h",,12 mmHg
same,"SHR blood pressure (SBP), time after administration 3 h",,183 ± 9.90 mmHg
same,"SBP Difference before and after administration, 4 h",,17 mmHg
same,"SHR blood pressure (SBP), time after administration 4 h",,178 ± 6.61 mmHg
same,"SBP Difference before and after administration, 5 h",,13 mmHg
same,"SHR blood pressure (SBP), time after administration 5 h",,182 ± 7.25 mmHg
same,"SBP Difference before and after administration, 6 h",,11 mmHg
same,"SHR blood pressure (SBP), time after administration 6 h",,184 ± 12.1 mmHg
CC(C)c1cccc(C(O)CO)c1 (stereo not drawn) [Compound 9],"SBP Difference before and after administration, 1 h",,2 mmHg
same,"SHR blood pressure (SBP), time after administration 1 h",,192 ± 11.6 mmHg
same,"SBP Difference before and after administration, 2 h",,6 mmHg
same,"SHR blood pressure (SBP), time after administration 2 h",,188 ± 12.1 mmHg
same,"SBP Difference before and after administration, 3 h",,17 mmHg
same,"SHR blood pressure (SBP), time after administration 3 h",,177 ± 12.3 mmHg
same,"SBP Difference before and after administration, 4 h",,14 mmHg
same,"SHR blood pressure (SBP), time after administration 4 h",,180 ± 12.85 mmHg
same,"SBP Difference before and after administration, 5 h",,10 mmHg
same,"SHR blood pressure (SBP), time after administration 5 h",,184 ± 16.0 mmHg
same,"SBP Difference before and after administration, 6 h",,8 mmHg
same,"SHR blood pressure (SBP), time after administration 6 h",,186 ± 17.8 mmHg
COc1cc(C(O)CO)ccc1O (stereo not drawn) [Compound 25],"SBP Difference before and after administration, 1 h",,8 mmHg
same,"SHR blood pressure (SBP), time after administration 1 h",,191 ± 6.64 mmHg
same,"SBP Difference before and after administration, 2 h",,10 mmHg
same,"SHR blood pressure (SBP), time after administration 2 h",,189 ± 7.77 mmHg
same,"SBP Difference before and after administration, 3 h",,11 mmHg
same,"SHR blood pressure (SBP), time after administration 3 h",,186 ± 8.18 mmHg
same,"SBP Difference before and after administration, 4 h",,15 mmHg
same,"SHR blood pressure (SBP), time after administration 4 h",,184 ± 4.56 mmHg
same,"SBP Difference before and after administration, 5 h",,12 mmHg
same,"SHR blood pressure (SBP), time after administration 5 h",,187 ± 14.2 mmHg
same,"SBP Difference before and after administration, 6 h",,11 mmHg
same,"SHR blood pressure (SBP), time after administration 6 h",,188 ± 5.55 mmHg
CCOC(=O)OC(CO)c1cccc(CC)c1 (stereo not drawn) [Compound 19],"SBP Difference before and after administration, 1 h",,12 mmHg
same,"SHR blood pressure (SBP), time after administration 1 h",,182 ± 11.6 mmHg
same,"SBP Difference before and after administration, 2 h",,16 mmHg
same,"SHR blood pressure (SBP), time after administration 2 h",,178 ± 10.8 mmHg
same,"SBP Difference before and after administration, 3 h",,17 mmHg
same,"SHR blood pressure (SBP), time after administration 3 h",,177 ± 10.9 mmHg
same,"SBP Difference before and after administration, 4 h",,13 mmHg
same,"SHR blood pressure (SBP), time after administration 4 h",,181 ± 15.80 mmHg
same,"SBP Difference before and after administration, 5 h",,10 mmHg
same,"SHR blood pressure (SBP), time after administration 5 h",,184 ± 16.0 mmHg
same,"SBP Difference before and after administration, 6 h",,8 mmHg
same,"SHR blood pressure (SBP), time after administration 6 h",,186 ± 17.7 mmHg
